SMILES strings stand for the structures.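 Protocol summary: plate cells (96-well), add compound at 5 concentrations, incubate 48 h, interpolate endpoints linearly. The concentration for 50% growth inhibition is given as GI50. TGI marks complete inhibition of growth.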

What all share (assay): DTP human tumour cell line panel, 48 h
Test [1] concerns KM20L2 colon.
In test [2] the test system is NCI-H460 lung.
Test [3] relates to COLO 205 colon.
In test [4] the test system is SF-539 CNS.
Test [5] has as its system SK-OV-3 ovarian.
In test [6] the test system is A549 NSCLC.
The subject of test [7] is DMS 273 small cell lung.
In test [8] the test system is OVCAR-4 ovarian.
The test system of test [9] is NCI/ADR-RES ovarian.
For test [10], the system named is T-47D breast.

Take `CC1CCSC(N(C(=O)N(C)c2ccccc2)c2ccccc2)=N1` (centres undefined): the TGI in test [1], in [2], in [3], in test [4], in [5] and in [6] was above 100 µM in each case. Besides, the TGI – broadly, the concentration giving total growth inhibition – in test [7] is above 100 µM.
Turning to `CC1=Nc2ccccc2/C1=C\c1c(C)[nH]c2ccccc12`, the TGI turned out to be 47.1 µM in [8]; 44.6 µM in test [2]; 38.3 µM in [9]; 53.2 µM in test [3]; 77.3 µM in test [4]; 51.8 µM in test [5]. Further, the TGI in test [6] came out at 73.6 µM; in test [10], 29.4 µM.
Take `C1=C2CCCC3=Cc4ccccc4OC23Oc2ccccc21`: the GI50 (in general, the concentration that inhibits growth by half) was 6.12 µM in [8]; 3.47 µM in [2]; 3.18 µM in [9]; 2.24 µM in test [3]; 1.92 µM in test [4]; 3.52 µM in test [5]. Further, the GI50 is 5.87 µM in [6] and 2.46 µM in test [10]. The TGI in [8] was above 100 µM; in test [2] it was 16.4 µM; in [9], 55.7 µM; in [3], 5.04 µM; in test [4] it was 5.01 µM; in test [5] it was above 100 µM. Further, the TGI in test [6] and in test [10] was above 100 µM throughout.
With `c1ccc2c(c1)SCCCSCCSCCCS2`, the concentration for total growth inhibition (TGI) in test [8], in test [2], in test [9], in [3], in test [4] and in test [5] was above 100 µM each time. Further, the TGI in [6] and in test [10] was above 100 µM each time.
As for `COc1cc(NC(=O)CCSc2nc3ccc(C)cc3c(=O)n2Cc2ccccc2)cc(OC)c1OC`, the GI50 in test [8] is 3.95 µM; in test [2], 5.31 µM; in test [9] it was 9.25 µM; in test [3], above 100 µM; in test [4], 2.5 µM; in test [5] it was 4.75 µM. The GI50 in [6] was 8.08 µM; in [10], 7.04 µM. Moreover, the TGI in test [8] is above 100 µM; in test [2], above 100 µM; in test [9], above 100 µM; in test [3] it was above 100 µM; in test [4] it was 7.26 µM; in test [5], 39.3 µM. Further, the TGI in [6] and in test [10] was above 100 µM each time.
For the compound `COC(=O)C1C(O)C(C)C(O)C(C)C=C(C)C2=C3C(=C(C)C(=O)c4c(O)c(c(C)c(OC(C)=O)c43)NC(=O)C(C)=C/C=C\C(C)C(O)C(C)C1O)OCO2` (centres undefined), the TGI in test [8] was above 100 µM; in test [2], above 100 µM; in [9] it was above 100 µM; in test [3] it was 63.6 µM; in [4], above 100 µM; in [5], above 100 µM. Also, the TGI in [6] and in test [10] was above 100 µM throughout.
Turning to `C=C1CCC2(C#N)[C@H]3[C@H](CC[C@@H]2C)[C@@H](C)C[C@@H](CC(C)(C)NC(=O)CN2CCC2=O)[C@H]13` (some centres undefined), the GI50 in test [8] was 8.9 µM; in test [2] it was 7.81 µM; in test [9], 11.3 µM; in test [3] it was 2.56 µM; in test [4] it was 5.98 µM; in test [5], 15.8 µM. Further, the GI50 in [6] is 13.3 µM; in test [10] it was 2.49 µM. The TGI in [8] is above 100 µM; in test [2], 20.5 µM; in [9], 38.4 µM; in [3], 13 µM; in test [4], 19.4 µM; in test [5] it was 50.2 µM. Besides, the values for the TGI in test [6] and in [10] were 50.4 µM and 9.64 µM, respectively.
In the case of `CC(C)OP(=O)(OC(C)C)/C(N)=N/Nc1ccc([N+](=O)[O-])cc1`, the TGI in test [8], in [1], in [2], in test [3], in [4] and in test [6] was above 100 µM in each case. In test [7], this compound registered a TGI above 100 µM.
In the case of `Cc1c2c(c(C)c3c4c(oc13)CCCC4)C=NCC2`, the TGI in test [8] was 54.8 µM; in test [2], 31.2 µM; in [9], 31.2 µM; in [3], 48.5 µM; in [4] it was 28.9 µM; in [5] it was 38.1 µM. Further, the TGI is 32.4 µM in test [6] and above 100 µM in test [10].
Take `C[Si](C)(C)/C=C\CCO`: the TGI in test [1], in test [2], in test [3], in test [4], in test [5] and in [6] was above 100 µM throughout. The compound further gave a TGI in [7] above 100 µM.
`NN=C(CC(O)(C(F)(F)Cl)C(F)(F)Cl)CC(O)(C(F)(F)Cl)C(F)(F)Cl`: the TGI in test [8], in test [2], in test [9], in [3], in [4] and in test [5] was above 10 µM throughout. In addition, the TGI in [6] and in test [10] was above 10 µM each time.
For `Cc1cc(N=C2C=C(Br)C(=O)C(Br)=C2)cc(CN(CC(=O)O)CC(=O)O)c1O`, the TGI in [8], in [2], in test [9], in test [3], in [4] and in [5] was above 100 µM each time. The TGI in test [6] and in test [10] was above 100 µM each time.
As for `CC(=O)[O-].[Mn+3].[O-]c1ccccc1C=NCCNCCN=Cc1ccccc1[O-]`, the GI50 in test [8], in test [2], in [4], in test [5], in test [6] and in test [7] was above 100 µM in each case. Besides, the TGI in test [8], in test [2], in [4], in test [5], in [6] and in test [7] was above 100 µM in each case.

The values above are taken from PubChem BioAssay (NCI).
